Tests used:
Assay type in all cases: in vivo
rice (Or) = assay: Test for crop selectivity by paddy field soil treatment (Test Example 4), phytotoxicity to rice; conditions: transplanted two-leaf stage rice, 100 g/10 a active ingredient, 21st day
Description: (§1) [table] <Test Example 4> Test For Crop Selectivity By Paddy Field Soil Treatment A paddy field soil was filled in a plastic pot of 100 cm^2 and subjected to puddling. Seeds of Echinochloa oryzicola Vasing. (Eo) were sowed; two-leaf stage seedlings of rice (Or) were transplanted in a depth of 2 cm; and water was filled in a depth of 3 cm. Next day, wettable powders produced in accordance with the Formulation 1 were diluted with water and dropped on the water surface. The application amount of each wettable powder was 100 g per 10 ares in terms of the active ingredient. Then, breeding was made in a greenhouse. At the 21st day from the treatment, the phytotoxicity and herbicidal effect of each wettable powder were examined in accordance with the standard shown in Table 40.

[1] = test system: Echinochloa oryzicola Vasing. (Eo); assay: Test for herbicidal effect by paddy field soil treatment (Test Example 1); conditions: application amount (active ingredient) 100 g/10 a, examined at the 21st day from the treatment, index per Table 40
Summary of the method: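 Eo seeds sown in puddled paddy soil under 3 cm water; next day a water-diluted wettable powder was dropped onto the water surface at 100 g active ingredient per 10 ares. Herbicidal effect scored on a standard scale 21 days after treatment, greenhouse-grown.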

[2] = test system: Echinochloa oryzicola Vasing. (Eo); assay: Test for crop selectivity by paddy field soil treatment (Test Example 4), herbicidal effect on Eo; conditions: 100 g/10 a active ingredient, 21st day
Description: as §1

[3] = test system: Echinochloa crus-galli (L.) Beauv. var. crusgall (Ec); assay: Test for herbicidal effect by upland field soil treatment (Test Example 2), Ec
Summary of the method: (§2)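 Echinochloa crus-galli and Setaria viridis were sown in upland field soil and covered, then the soil surface was sprayed with water-diluted wettable powder at 100 g active ingredient per 10 ares (100 liters per 10 ares). Plants were grown in a greenhouse and scored on a standard scale on day 21.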

[4] = test system: Echinochloa crus-galli (L.) Beauv. var. crusgalli (Ec); assay: Test for herbicidal effect by upland foliage treatment (Test Example 3); conditions: 100 g/10 a active ingredient, examined at 14th day
Summary of the method: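 Potted upland-soil Ec seedlings grown 2 weeks in greenhouse, then foliage-sprayed with water-diluted wettable powder at 100 L per 10 ares, giving 100 g active ingredient per 10 ares. Herbicidal effect scored on a graded standard 14 days after treatment.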

[5] = test system: Setaria viridis (L.) Beauv. (Se); assay: Test for herbicidal effect by upland field soil treatment (Test Example 2), Se; conditions: application amount (active ingredient) 100 g/10 a, examined at the 21st day from the treatment, index per Table 40
Summary of the method: as §2

Compound	Phytotoxicity to Or (rice (Or))	Herbicidal effect to Eo [1]	Herbicidal effect to Eo [2]	Herbicidal effect to Ec ([3]; 100 g/10 a active ingredient, examined at 21st day)	Herbicidal effect to Ec [4]	Herbicidal effect to Se [5]	Herbicidal effect to Ec ([3]; application amount (active ingredient) 100 g/10 a, examined at the 21st day from the treatment, index per Table 40)
CCC1(C)CC(S(=O)(=O)CCCc2ccccc2)=NO1 (centres unmarked) [Compound 1-457]	1 (A herbicidal effect or phytotoxicity of 10% to less than 30%)	5 (A herbicidal effect or phytotoxicity of 90% or more)	5 (A herbicidal effect or phytotoxicity of 90% or more)				
Fc1cccc(F)c1CSC1=NOC2CCCCC12 (centres unmarked) [Compound 1-386]	0 (A herbicidal effect or phytotoxicity of 0% to less than 10%)	4 (A herbicidal effect or phytotoxicity of 70% to less than 90%)	4 (A herbicidal effect or phytotoxicity of 70% to less than 90%)				
CCC1(C)CC(S(=O)(=O)Cc2ccc(OC)cc2)=NO1 (centres unmarked) [Compound 1-230]	0 (A herbicidal effect or phytotoxicity of 0% to less than 10%)	5 (A herbicidal effect or phytotoxicity of 90% or more)	5 (A herbicidal effect or phytotoxicity of 90% or more)				
CC1(C)CC(S(=O)(=O)Cc2c(Cl)cccc2C(=O)OCc2ccc(Cl)cc2)=NO1 [Compound 1-628]	0 (A herbicidal effect or phytotoxicity of 0% to less than 10%)	5 (A herbicidal effect or phytotoxicity of 90% or more)	5 (A herbicidal effect or phytotoxicity of 90% or more)				
CC1(C)CC(S(=O)(=O)Cc2ccccc2C(=O)OCc2ccc(Cl)cc2)=NO1 [Compound 1-614]	0 (A herbicidal effect or phytotoxicity of 0% to less than 10%)	5 (A herbicidal effect or phytotoxicity of 90% or more)	5 (A herbicidal effect or phytotoxicity of 90% or more)				
COCCOc1ccccc1CS(=O)(=O)C1=NOC(C)(C)C1 [Compound 1-579]	1 (A herbicidal effect or phytotoxicity of 10% to less than 30%)	5 (A herbicidal effect or phytotoxicity of 90% or more)	5 (A herbicidal effect or phytotoxicity of 90% or more)				
CC1(C)CC(S(=O)(=O)Cc2c(Cl)cccc2C(=O)OCc2ccccc2Cl)=NO1 [Compound 1-626]	0 (A herbicidal effect or phytotoxicity of 0% to less than 10%)	5 (A herbicidal effect or phytotoxicity of 90% or more)	5 (A herbicidal effect or phytotoxicity of 90% or more)				
CCC1(C)CC(S(=O)(=O)CCc2ccccc2)=NO1 (centres unmarked) [Compound 1-456]	0 (A herbicidal effect or phytotoxicity of 0% to less than 10%)	5 (A herbicidal effect or phytotoxicity of 90% or more)	5 (A herbicidal effect or phytotoxicity of 90% or more)				
O=S(=O)(Cc1c(F)cccc1F)C1=NOC2CCCCCCC12 (centres unmarked) [Compound 1-519]	0 (A herbicidal effect or phytotoxicity of 0% to less than 10%)	5 (A herbicidal effect or phytotoxicity of 90% or more)	5 (A herbicidal effect or phytotoxicity of 90% or more)				
CCCCOC(=O)c1cccc(Cl)c1CS(=O)(=O)C1=NOC(C)(C)C1 [Compound 1-622]	1 (A herbicidal effect or phytotoxicity of 10% to less than 30%)	5 (A herbicidal effect or phytotoxicity of 90% or more)	5 (A herbicidal effect or phytotoxicity of 90% or more)	5 (A herbicidal effect or phytotoxicity of 90% or more)			
CCCC1(C)CC([S+]([O-])Cc2c(F)cccc2F)=NO1 (centres unmarked) [Compound 1-365]	1 (A herbicidal effect or phytotoxicity of 10% to less than 30%)	5 (A herbicidal effect or phytotoxicity of 90% or more)	5 (A herbicidal effect or phytotoxicity of 90% or more)				
CC(C)COC(=O)c1ccccc1CS(=O)(=O)C1=NOC(C)(C)C1 [Compound 1-598]	1 (A herbicidal effect or phytotoxicity of 10% to less than 30%)	5 (A herbicidal effect or phytotoxicity of 90% or more)	5 (A herbicidal effect or phytotoxicity of 90% or more)				
CC1(C)CC(S(=O)(=O)Cc2ccccc2N)=NO1 [Compound 1-552]	1 (A herbicidal effect or phytotoxicity of 10% to less than 30%)	4 (A herbicidal effect or phytotoxicity of 70% to less than 90%)	4 (A herbicidal effect or phytotoxicity of 70% to less than 90%)				
CC1(COCc2c(F)cccc2F)CC(S(=O)(=O)Cc2c(F)cccc2F)=NO1 (centres unmarked) [Compound 1-401]	0 (A herbicidal effect or phytotoxicity of 0% to less than 10%)	5 (A herbicidal effect or phytotoxicity of 90% or more)	5 (A herbicidal effect or phytotoxicity of 90% or more)				
CC1(C)CC(S(=O)(=O)Cc2ccccc2OCc2ccccc2)=NO1 [Compound 1-588]	1 (A herbicidal effect or phytotoxicity of 10% to less than 30%)	5 (A herbicidal effect or phytotoxicity of 90% or more)	5 (A herbicidal effect or phytotoxicity of 90% or more)				
CC1(C)CC(S(=O)(=O)Cc2c(Cl)cccc2C(=O)OCc2cccc(Cl)c2)=NO1 [Compound 1-627]	1 (A herbicidal effect or phytotoxicity of 10% to less than 30%)	5 (A herbicidal effect or phytotoxicity of 90% or more)	5 (A herbicidal effect or phytotoxicity of 90% or more)				
CC1(C)CC(S(=O)(=O)Cc2ccccc2C(=O)OCc2ccccc2Cl)=NO1 [Compound 1-612]	0 (A herbicidal effect or phytotoxicity of 0% to less than 10%)	5 (A herbicidal effect or phytotoxicity of 90% or more)	5 (A herbicidal effect or phytotoxicity of 90% or more)				
CC1(C)CC(S(=O)(=O)Cc2c(Cl)cccc2C(=O)OCc2ccccc2)=NO1 [Compound 1-625]	1 (A herbicidal effect or phytotoxicity of 10% to less than 30%)	5 (A herbicidal effect or phytotoxicity of 90% or more)	5 (A herbicidal effect or phytotoxicity of 90% or more)				
CC(C)COC(=O)c1cccc(Cl)c1CS(=O)(=O)C1=NOC(C)(C)C1 [Compound 1-624]	1 (A herbicidal effect or phytotoxicity of 10% to less than 30%)	5 (A herbicidal effect or phytotoxicity of 90% or more)	5 (A herbicidal effect or phytotoxicity of 90% or more)				
CCC(C)OC(=O)c1cccc(Cl)c1CS(=O)(=O)C1=NOC(C)(C)C1 (centres unmarked) [Compound 1-623]	1 (A herbicidal effect or phytotoxicity of 10% to less than 30%)	5 (A herbicidal effect or phytotoxicity of 90% or more)	5 (A herbicidal effect or phytotoxicity of 90% or more)				
CC1(Cc2ccccc2)CC(S(=O)(=O)Cc2c(F)cccc2F)=NO1 (centres unmarked) [Compound 1-377]	0 (A herbicidal effect or phytotoxicity of 0% to less than 10%)	5 (A herbicidal effect or phytotoxicity of 90% or more)	5 (A herbicidal effect or phytotoxicity of 90% or more)				
CC(C)C1(C)CC([S+]([O-])Cc2c(F)cccc2F)=NO1 (centres unmarked) [Compound 1-367]	1 (A herbicidal effect or phytotoxicity of 10% to less than 30%)	5 (A herbicidal effect or phytotoxicity of 90% or more)	5 (A herbicidal effect or phytotoxicity of 90% or more)				
CCS(=O)(=O)C1=NOC(C)(C)C1 [Compound 2-2]	0 (A herbicidal effect or phytotoxicity of 0% to less than 10%)	5 (A herbicidal effect or phytotoxicity of 90% or more)	5 (A herbicidal effect or phytotoxicity of 90% or more)				
CC1(C(=O)O)CC(SCc2c(F)cccc2F)=NO1 (centres unmarked) [Compound 1-419]	1 (A herbicidal effect or phytotoxicity of 10% to less than 30%)	5 (A herbicidal effect or phytotoxicity of 90% or more)	5 (A herbicidal effect or phytotoxicity of 90% or more)				
CC1(C)CC(S(=O)(=O)Cc2ccccc2C(=O)OCc2cccc(Cl)c2)=NO1 [Compound 1-613]	0 (A herbicidal effect or phytotoxicity of 0% to less than 10%)	5 (A herbicidal effect or phytotoxicity of 90% or more)	5 (A herbicidal effect or phytotoxicity of 90% or more)				
CC1(C)CC(S(=O)(=O)Cc2c(F)cccc2Cl)=NO1 [Compound 1-494]		5 (A herbicidal effect or phytotoxicity of 90% or more)			5 (A herbicidal effect or phytotoxicity of 90% or more)	5 (A herbicidal effect or phytotoxicity of 90% or more)	5 (A herbicidal effect or phytotoxicity of 90% or more)

Source: patent US6841519B1, “Isoxazoline derivatives and herbicides containing the same as the active ingredient” (Kumiai Chemical Industry Co., Ltd., priority 1999, dated 2005)
